Values quoted from earlier work as cited in paper PMC7395068, “The evolution of strategies to minimise the risk of human drug-induced liver injury (DILI) in drug discovery and development” (Archives of Toxicology, 2020).
Where two headings read alike, the source gives them in different places.

Columns and labels:
[1] = test system: isolated mouse liver mitochondria; conditions: cited from earlier work
[2] = cited from earlier work
[3] = cited from earlier work; remark: listed apart in the source
[4] = test system: human hepatocytes; conditions: In vitro Assay; ref Xu 2008; cited from earlier work
[5] = test system: THLE or HepG2 cells, isolated mitochondria, BSEP; conditions: cited from earlier work
[6] = test system: primary human hepatocytes, NIH3T3 fibroblasts, BSEP, CYP3A4; conditions: cited from earlier work
[7] = In vitro Assay, ref Porceddu 2012
[8] = isolated mouse liver mitochondria, EC20<=2uM, ref Porceddu 2012
[9] = In vitro Assay, ref Schadt 2015

Row | Structure (SMILES) | in vitro data EC2<=1x Cmax [1, 7] | in vitro data EC20<=2uM [1, 7] | In vivo DILI ([2]; ref Porceddu 2012) | also measured
1 | Nc1c(Br)cc(Br)cc1CN[C@H]1CC[C@H](O)CC1 [Ambroxol] | -VE | – | – | –
2 | Cc1cc(=O)n(-c2ccccc2)n1C [Antipyrine] | +VE | -VE | – | In vivo DILI ([2]; in vivo): -VE
3 | O=C(/C=C/c1ccc(O)c(O)c1)c1ccc(O)cc1O [Butein] | – | – | – | in vitro data EC20<=2uM [1, 8]: +VE
4 | COc1cc(CNC(=O)CCCC/C=C/C(C)C)ccc1O [Capsaicin] | -VE | +VE | -VE | –
5 | O=P(O)(O)C(Cl)(Cl)P(=O)(O)O [Clodronate] | -VE | -VE | -VE | –
6 | COc1cc(/C=C/C(=O)CC(=O)/C=C/c2ccc(O)c(OC)c2)ccc1O [Curcumin] | -VE | – | – | –
7 | Clc1ccc(COC(Cn2ccnc2)c2ccc(Cl)cc2Cl)cc1 (stereo not drawn) [Econazole] | +VE | +VE | +VE | –
8 | CCOC(=O)c1ccc(O)cc1 [Ethyl paraben] | – | – | – | in vitro data EC20<=2uM [1]: -VE
9 | O=C(O)c1ccccc1Nc1cccc(C(F)(F)F)c1 [Flufenamic acid] | +VE | +VE | +VE | –
10 | O=C(O)c1cc(O)c(O)c(O)c1 [Gallic acid] | +VE | – | – | –
11 | Cc1cc2c(C(C)C)c(O)c(O)c(C=O)c2c(O)c1-c1c(C)cc2c(C(C)C)c(O)c(O)c(C=O)c2c1O [Gossypol] | – | +VE | +VE | –
12 | O=C(O)c1nn(Cc2ccc(Cl)cc2Cl)c2ccccc12 [Lonidamine] | +VE | +VE | +VE | –
13 | CCOC(=O)[N-]c1cn(N2CCOCC2)n[o+]1 [Molsidomine] | -VE | -VE | -VE | –
14 | CO[C@]12C[C@@H](COC(=O)c3cncc(Br)c3)CN(C)[C@@H]1Cc1cn(C)c3cccc2c13 [Nicergoline] | -VE | +VE | -VE | –
15 | Oc1cc(O)cc(O)c1 [Phloroglucinol] | – | – | – | in vitro data EC20<=2uM [1, 8]: -VE
16 | Oc1ccc(/C=C/c2cc(O)cc(O)c2)cc1 [Resveratrol] | -VE | – | – | –
17 | O=C1NS(=O)(=O)c2ccccc21 [Saccharin] | +VE | -VE | +VE | –
18 | OC[C@H]1O[C@@](CO)(O[C@H]2O[C@H](CO)[C@@H](O)[C@H](O)[C@H]2O)[C@@H](O)[C@@H]1O [Sucrose] | – | – | – | in vitro data EC20<=2uM [1]: -VE
19 | Cc1c(Cl)cccc1Nc1ccccc1C(=O)O [Tolfenamic acid] | +VE | +VE | +VE | –
20 | C[C@@H]1O[C@@H](OC[C@H]2O[C@@H](Oc3c(-c4ccc(OCCO)c(OCCO)c4)oc4cc(OCCO)cc(O)c4c3=O)[C@H](O)[C@@H](O)[C@@H]2O)[C@H](O)[C@H](O)[C@H]1O [Troxerutin] | -VE | +VE | -VE | –
21 | CC1(C)S[C@@H]2[C@H](NC(=O)[C@H](N)c3ccccc3)C(=O)N2[C@H]1C(=O)O [ampicillin] | +VE | – | – | –
22 | O=[As]O[As]=O (stereo not drawn) [arsenic trioxide] | -VE | +VE | +VE | DILI +VE (5-8), DILI -VE (-4) ([3]; ref Chen 2016): -VE; DILI severity category ([3]; ref Chen 2016): Ambiguous DILI-concern

Row | Structure (SMILES) | in vitro data EC2<=1x Cmax [1, 7] | in vitro data EC20<=2uM [1, 7] | In vivo DILI ([2]; ref Porceddu 2012) | also measured
23 | C=CC1=C(C(=O)O)N2C(=O)[C@@H](NC(=O)/C(=N\OCC(=O)O)c3csc(N)n3)[C@H]2SC1 [cefixime] | +VE | -VE | +VE | DILI +VE (5-8), DILI -VE (-4) ([3]; ref Chen 2016): -VE; DILI severity category ([3]; ref Chen 2016): Ambiguous DILI-concern
24 | O=C(O)CCCc1ccc(N(CCCl)CCCl)cc1 [chlorambucil] | +VE | +VE | +VE | DILI +VE (5-8), DILI -VE (-4) ([3]; ref Chen 2016): +VE; DILI severity category ([3]; ref Chen 2016): vLess-DILI-Concern
25 | COc1cccc2c1C(=O)c1c(O)c3c(c(O)c1C2=O)C[C@@](O)(C(C)=O)C[C@@H]3O[C@H]1C[C@H](N)[C@H](O)[C@H](C)O1 [daunorubicin] | +VE | +VE | +VE | DILI +VE (5-8), DILI -VE (-4) ([3]; ref Chen 2016): -VE; DILI severity category ([3]; ref Chen 2016): vNo-DILI-Concern
26 | CC1=NS(=O)(=O)c2cc(Cl)ccc2N1 [diazoxide] | +VE | -VE | -VE | DILI +VE (5-8), DILI -VE (-4) ([3]; ref Chen 2016): -VE; DILI severity category ([3]; ref Chen 2016): Ambiguous DILI-concern
27 | C[C@H]1O[C@@H](O[C@H]2[C@@H](O)C[C@H](O[C@H]3[C@@H](O)C[C@H](O[C@H]4CC[C@@]5(C)[C@H](CC[C@@H]6[C@@H]5C[C@@H](O)[C@]5(C)[C@@H](C7=CC(=O)OC7)CC[C@]65O)C4)O[C@@H]3C)O[C@@H]2C)C[C@H](O)[C@@H]1O [digoxin] | – | – | – | Structural based (HCI) [4]: -VE; Ro2 Hybrid HRM Score ([5]; In vitro Assay, ref Aleo 2019): -VE; Partition Hybrid HRM Score [5]: -VE; Cellular toxicity (3T3 cells) [6, 9]: -VE; Combined Assay [6, 9]: -VE; GSH adduct HML [6, 9]: -VE; Hepatocyte cellular toxicity [6, 9]: -VE; MitoTox 3T3 [6, 9]: -VE; TDI CYP3A4 [6, 9]: -VE; hBSEP inhibition [6, 9]: -VE
28 | Cc1c(N(C)CS(=O)(=O)[O-])c(=O)n(-c2ccccc2)n1C.[Na+] [dipyrone] | – | – | – | in vitro data EC20<=2uM [1]: +VE
29 | C#Cc1cccc(Nc2ncnc3cc(OCCOC)c(OCCOC)cc23)c1 [erlotinib] | +VE | +VE | +VE | DILI +VE (5-8), DILI -VE (-4) ([3]; ref Chen 2016): +VE; DILI severity category ([3]; ref Chen 2016): vMost-DILI-Concern
30 | Nc1nc2ncc(CNc3ccc(C(=O)N[C@@H](CCC(=O)O)C(=O)O)cc3)nc2c(=O)[nH]1 [folic acid] | +VE | – | – | Partition Hybrid HRM Score ([5]; In vitro Assay, ref Aleo 2019): -VE; Ro2 Hybrid HRM Score ([5]; In vitro Assay, ref Aleo 2019): -VE
31 | COc1cc2ncnc(Nc3ccc(F)c(Cl)c3)c2cc1OCCCN1CCOCC1 [gefitinib] | +VE | – | – | Partition Hybrid HRM Score ([5]; In vitro Assay, ref Aleo 2019): +VE; Ro2 Hybrid HRM Score ([5]; In vitro Assay, ref Aleo 2019): +VE
32 | O=c1c(-c2ccc(O)cc2)coc2cc(O)cc(O)c12 [genistein] | – | – | – | in vitro data EC20<=2uM [1]: +VE; In vivo DILI ([2]; in vivo): -VE
33 | Cc1ccc(NC(=O)c2ccc(CN3CCN(C)CC3)cc2)cc1Nc1nccc(-c2cccnc2)n1 [imatinib] | +VE | – | – | DILI +VE (5-8), DILI -VE (-4) ([3]; in vivo): +VE; DILI severity category ([3]; in vivo): vMost-DILI-Concern; In vivo DILI ([2]; in vivo): +VE
34 | [Cl][Mn][Cl] [manganese chloride] | -VE | -VE | -VE | –
35 | Cc1c(O)cccc1C(=O)N[C@@H](CSc1ccccc1)[C@H](O)CN1C[C@H]2CCCC[C@H]2C[C@H]1C(=O)NC(C)(C)C [nelfinavir] | +VE | +VE | +VE | DILI +VE (5-8), DILI -VE (-4) ([3]; ref Chen 2016): +VE; DILI severity category ([3]; ref Chen 2016): vLess-DILI-Concern
36 | Cc1cn(-c2cc(NC(=O)c3ccc(C)c(Nc4nccc(-c5cccnc5)n4)c3)cc(C(F)(F)F)c2)cn1 [nilotinib] | +VE | – | – | –
37 | Cc1cc2nc3c(=O)[nH]c(=O)nc-3n(C[C@H](O)[C@H](O)[C@H](O)CO)c2cc1C [riboflavin] | -VE | – | – | –
38 | CC[C@H]1OC(=O)[C@H](C)[C@@H](O[C@H]2C[C@@](C)(OC)[C@@H](O)[C@H](C)O2)[C@H](C)[C@@H](O[C@@H]2O[C@H](C)C[C@H](N(C)C)[C@H]2O)[C@](C)(O)C[C@@H](C)/C(=N\OCOCCOC)[C@H](C)[C@@H](O)[C@]1(C)O [roxithromycin] | +VE | -VE | +VE | –
39 | CC(C)(C)NC(=O)[C@@H]1C[C@@H]2CCCC[C@@H]2CN1C[C@@H](O)[C@H](Cc1ccccc1)NC(=O)[C@H](CC(N)=O)NC(=O)c1ccc2ccccc2n1 [saquinavir] | +VE | +VE | +VE | DILI +VE (5-8), DILI -VE (-4) ([3]; ref Chen 2016): +VE; DILI severity category ([3]; ref Chen 2016): vLess-DILI-Concern; In vivo DILI ([2]; ref Schadt 2015): -VE
40 | NCCS(=O)(=O)O [taurine] | – | – | – | in vitro data EC20<=2uM [1, 8]: -VE
41 | CCCc1nc2c(C)cc(-c3nc4ccccc4n3C)cc2n1Cc1ccc(-c2ccccc2C(=O)O)cc1 [telmisartan] | – | – | – | Structural based (HCI) [4]: -VE; Partition Hybrid HRM Score ([5]; In vitro Assay, ref Aleo 2019): +VE; Ro2 Hybrid HRM Score ([5]; In vitro Assay, ref Aleo 2019): +VE; DILI +VE (5-8), DILI -VE (-4) ([3]; ref Chen 2016): +VE; DILI severity category ([3]; ref Chen 2016): vLess-DILI-Concern; In vivo DILI ([2]; ref Aleo 2019): +VE; In vivo DILI ([2]; ref Schadt 2015): -VE; In vivo DILI ([2]; ref Xu 2008): -VE; Cellular toxicity (3T3 cells) [6]: -VE; Combined Assay [6]: +VE; GSH adduct HML [6]: -VE; Hepatocyte cellular toxicity [6]: +VE; MitoTox 3T3 [6]: -VE; TDI CYP3A4 [6]: -VE; hBSEP inhibition [6]: +VE
42 | COc1cccc(C2(O)CCCCC2CN(C)C)c1 (stereo not drawn) [tramadol] | -VE | -VE | +VE | DILI +VE (5-8), DILI -VE (-4) ([3]; ref Chen 2016): -VE; DILI severity category ([3]; ref Chen 2016): Ambiguous DILI-concern
43 | CC[C@]1(O)C[C@@H]2CN(CCc3c([nH]c4ccccc34)[C@@](C(=O)OC)(c3cc4c(cc3OC)N(C)[C@H]3[C@@](O)(C(=O)OC)[C@H](OC(C)=O)[C@]5(CC)C=CCN6CC[C@]43[C@@H]65)C2)C1 [vinblastine] | -VE | – | – | Cellular toxicity (3T3 cells) [6, 9]: -VE; GSH adduct HML [6, 9]: -VE; Hepatocyte cellular toxicity [6, 9]: +VE; MitoTox 3T3 [6, 9]: +VE; TDI CYP3A4 [6, 9]: +VE; hBSEP inhibition [6, 9]: +VE
